# Assay results published in US20040120949A1, “Compositions and methods for treating cancer using cytotoxic CD44 antibody immunoconjugates and radiotherapy” (Boehringer Ingelheim International GmbH, priority 2002, published 2004).
# Several values for one entry are separate records, joined by “and”; a condition that tells them apart may be missing. Equal entries are not always repeated.
# B1: BIWA 4 (antibody, human IgG1, kappa, V domains shown)
# VH: EVQLVESGGGLVKPGGSLRLSCAASGFTFSSYDMSWVRQAPGKGLEWVSTISSGGSYTYYLDSIKGRFTISRDNAKNSLYLQMNSLRAEDTAVYYCARQGLDYWGRGTLVTVSS
# VL: EIVLTQSPATLSLSPGERATLSCSASSSINYIYWYQQKPGQAPRLLIYLTSNLASGVPARFSGSGSGTDFTLTISSLEPEDFAVYYCLQWSSNPLTFGGGTKVEIKR
# B2: BIWI 1 (antibody, V domains shown)
# VH: B1 VH
# VL: B1 VL
# modifications: maytansinoid DM1 linked by a disulfide bond through the SPP-derived thiopentanoate linker to amino functions of the antibody; DM1/MAb ratio 3.1 (average for the whole antibody; sites not stated)
# Legend:
# [1] = test system: cells in vitro; details: free drug; cited from earlier work
# [2] = test system: human FaDu SCC; assay: Tumor growth delay and local control of FaDu tumors in nude mice, drug alone or with fractionated irradiation; type: in vivo, NMRI (nu/nu) mice; details: for Growth delay to 5 times the starting volume (tν5) / Growth delay to 10 times the starting volume (tV10): median
# Experimental: (§1) BIWI 1, BIWA 4 and phosphate buffered saline (PBS) were applied intravenously (i.v.) in one of the tail veins. BIWI 1 was applied in doses of 50 μg and 100 μg DM1/kg body weight (b.w.)/d. Control animals were treated either with BIWA 4 (antibody control, 7 mg/kg b. w./d) or PBS.
# (§2) Animals: The experiments were performed using 7-14 week old male and female NMRI (nu/nu) mice from the specific pathogen-free animal breeding facility of the Experimental Center of the Medical Faculty of the University of Dresden. The animal facilities and the experiments were approved according to the German animal welfare regulations. The microbiological status of the animals was regularly checked by the veterinarians of the facility. The animal rooms provided day light plus a 12 h light-12 h dark electric cycle (light-on time 07.00 a.m.) and a constant temperature of 26° C. and relative humidity of 50-60%. The animals were fed a commercial laboratory animal diet and water ad libitum. To immunosuppress the nude mice further, they were whole-body irradiated 2 days before tumor transplantation with 4 Gy using 200 kV X-rays (0.5 mm Cu) at a dose rate of about 1 Gy/min.
# Tumor: FaDu is an established human hypopharyngeal squamous cell carcinoma line, kept in high passage by the American Type Culture Collection (Rockville, Md.). In nude mice FaDu grows as an undifferentiated carcinoma with a volume doubling time (VDT) between 100 mm^3 and 400 mm^3 of about 4 days. […] For the experiments small tumor pieces were transplanted subcutaneously (s.c.) into the right hindleg of anaesthetised mice.
# (§3) Combination of BIWI 1 with fractionated irradiation: Local irradiations were given under ambient conditions without anaesthesia to air breathing animals (200 kV X-rays, 0.5 mm Cu, at a dose rate of 1.1 Gy/min). Up to five animals were irradiated simultaneously in specially designed jigs. For the treatments, the mice were immobilised in a plastic tube fixed on a lucite plate. The tumor-bearing leg was held positioned in the irradiation field by a foot-holder distal to the tumor. Tumor volume at the start of irradiation were around 100 mm^3. Tumors were irradiated with 5 fractions of 4 Gy in 5 days. The animals were randomized over the experimental matrix in groups of 5, aiming for about 15 animals (range 14 to 15 animals) for each treatment group. Irradiation protocols were started every second day. Animals received either BIWI 1 (50 μg DM1/kg/d), BIWI 1 (100 μg DM1/kg/d), BIWA 4 (7 mg/kg/d) or PBS two hours after each irradiation for 5 consecutive days. The report includes data obtained from a total of 59 irradiated tumors. In addition, 57 unirradiated FaDu tumors were treated with BIWI 1 (50 μg/kg/d), BIWI 1 (100 μg/kg/d), BIWA 4 (7 mg/kg/d) or PBS for 5 consecutive days.
# Determinations of tumor volume and tumor growth delay: Animals were observed until the mean diameter of the untreated or recurrent tumors exceeded 12-15 mm, until death or until day 120 after end of treatment. Animals that appeared to suffer were killed before reaching these endpoints. Tumor diameters were measured every second day. Tumor volumes were determined by the formula of a rotational ellipsoid π/6×a×b^2, where a is the longest and b is the perpendicular shorter tumor axis. Conversion of tumor volumes to tumor mass (mg) was performed by a calibration curve based on excision weights. Tumor growth delay was determined from individual growth curves as the time that a regrowing tumor needed to reach 5 and 10 times the start volume (tv5, tv10).
# Statistics: Medians and 95% confidence intervals (CI) of the tumor growth delay were calculated according to Sachs (Angewandte Statistik, 7. Aufl., Springer 1992). Experimental groups were compared using the Mann-Whitney-U test and a commercial software package (SPSS for Windows 9.0, SPSS Inc., 1999).
# [3] = Tolerability in tumor-bearing nude mice; type: in vivo
# Experimental: as §1, §2, §3
# [4] = Biodistribution and tumor uptake in vivo
# [5] = test system: antigen-positive FaDu cells; assay: In vitro binding to FaDu cells by FACS; details: on ice 1 hour, FITC-labeled anti-human IgG, read-out: apparent KD
# Experimental: The binding of BIWA 4 antibody and BIWI 1 conjugate to antigen-positive FaDu cells was determined. Cells (1−2×10^−5) were incubated in 96-well plates with varying concentrations of antibody or conjugate on ice for 1 hour. The test article was washed from the plate and FITC-labeled anti-human IgG was added and the incubation on ice was continued in the dark for 1 hour. After washing, the cells were fixed with 1% paraformaldehyde and analyzed on a fluorescence activated cell sorter (FACS).
# [6] = test system: CD44v6; assay: Antigen binding affinity of humanised VFF-18 versions; parameters: species or system human
# [7] = molecular target: CD44v6 on antigen-positive FaDu cells (human) (UniProt P16070); assay: flow cytometry (FACS) on antigen-positive FaDu cells, FITC-labeled anti-human IgG detection; apparent KD
# [8] = BIWA 4 7 mg/kg/d + fractionated irradiation
# [9] = BIWA 4 7 mg/kg/d i.v. x5 days, no irradiation
# [10] = BIWA 4 7 mg/kg/d x5 days + fRT (5x4 Gy)
# [11] = 50 μg DM1/kg b.w./d alone, no irradiation
# [12] = 50 μg DM1/kg/d + fractionated irradiation
# [13] = 50 ug DM1/kg/d i.v. x5 days, no irradiation
# [14] = 50 ug DM1/kg/d x5 days + fRT (5x4 Gy)
# [15] = 100 ug DM1/kg/d i.v. x5 days, no irradiation
# [16] = 100 ug DM1/kg/d x5 days + fRT (5x4 Gy)
# Chain of CD44v6 (P16070 386-428 limits assumed): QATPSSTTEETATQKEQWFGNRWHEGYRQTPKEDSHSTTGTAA
molecule,measurement,setting,value
"COc1cc2cc(c1Cl)N(C)C(=O)C[C@H](OC(=O)[C@H](C)N(C)C(=O)CCS)[C@]1(C)O[C@H]1[C@H](C)[C@@H]1C[C@@](O)(NC(=O)O1)[C@H](OC)/C=C/C=C(\C)C2 [DM1, N^2′-deacetyl-N^2′-(3-mercapto-1-oxopropyl)-Maytansine]",concentration toxic to cells in vitro,[1],approximately 10^−10 M
"BIWA 4: Humanised version of antibody VFF-18, CD44v6 specific; light chains SEQ ID NO:4, heavy chains SEQ ID NO:6",Local tumor control rate at day 120,[2]; [8],0/14
same,estimated dose modifying factor,[2]; [8],1.2
same,Growth delay compared with irradiated controls,[2]; BIWA 4 7 mg/kg/d + irradiation 20 Gy in 5 fractions,slightly but significant longer growth delay
same,Tumor growth compared with control tumors treated with PBS,"[2]; BIWA 4 7 mg/kg/d alone, no irradiation",did not alter tumor growth
same,Growth delay to 5 times the starting volume (tν5),[2]; [9],"10,8 d"
same,Growth delay to 10 times the starting volume (tV10),[2]; [9],16.0 days
same,Growth delay to 5 times the starting volume (tν5),[2]; [10],30.5 days
same,Growth delay to 10 times the starting volume (tV10),[2]; [10],40.0 days
same,Toxicity observed after application,[3]; i.v. x5 days,No toxicity was observed
same,Body weight during the treatment,"[3]; irradiated and unirradiated animals, versus PBS group",minor and temporary changes without significant differences
same,Biodistribution and tumor uptake in vivo,[4],very favorable biodistribution and tumor uptake in vivo
same,Kd,[5],1 nM
same,Antigen binding affinity (comparative),[6],significantly lower antigen binding affinity as its parent antibody VFF-18
BIWI 1,tv5 and tv10 compared with irradiated tumors which received PBS or BIWA 4,[2]; 50 μg DM1/kg b.w./d + irradiation 20 Gy in 5 fractions,clear-cut longer
same,tv5 compared with controls,[2]; [11],did not prolong
same,tv10 compared with controls,[2]; [11],slightly but significant longer
same,Effect of combined treatment with fractionated irradiation (radiosensitizing efficacy),[2]; [12],supra-additive
same,Local tumor control rate at day 120,[2]; [12],7 out of 15
same,estimated dose modifying factor,[2]; [12],4.1
same,Local tumor control rate at day 120,"[2]; 50 μg DM1/kg/d + fractionated irradiation, listed as BIWI1",7/15
same,Growth delay to 5 times the starting volume (tν5),[2]; [13],13.5 days
same,Growth delay to 10 times the starting volume (tV10),[2]; [13],26.0 days
same,Growth delay to 5 times the starting volume (tν5),[2]; [14],107.5 days
same,Growth delay to 10 times the starting volume (tV10),[2]; [14],>120 days
same,tv5 and tv10 compared with irradiated tumors which received PBS or BIWA 4,[2]; 100 μg DM1/kg b.w./d + irradiation 20 Gy in 5 fractions,significant longer
same,Tv5 and tv10 compared to controls,"[2]; 100 μg DM1/kg b.w./d alone, no irradiation",substantially and significantly prolonged
same,estimated dose modifying factor,[2]; 100 μg DM1/kg/d + fractionated irradiation,> 4.5
same,Local tumor control rate at day 120,"[2]; 100 μg DM1/kg/d + fractionated irradiation, 4 further controlled animals censored earlier",6 out of 15 and 6/15
same,Growth delay to 5 times the starting volume (tν5),[2]; [15],27.5 days
same,Growth delay to 10 times the starting volume (tV10),[2]; [15],33.5 days
same,Growth delay to 5 times the starting volume (tν5),[2]; [16],>120 days
same,Growth delay to 10 times the starting volume (tV10),[2]; [16],>120 days
same,estimated kill of clonogenic FaDu cells,[2]; 5x 100 μg DM1/kg/d alone,at least two logs
same,Toxicity observed after application,[3]; i.v. x5 days,No toxicity was observed
same,Tolerability,"[3]; i.v. x5 days, irradiated and unirradiated animals",well tolerated
same,Body weight during the treatment,"[3]; mouse, in vivo",minor and temporary changes without significant differences
same,Kd,[5],1.8 nM
B1,Kd,[7],1 nM
B2,Kd,[7],1.8 nM
